Results: patent publication US20260364030A1, “NOVEL SELECTIVE INHIBITORS OF LYSYL OXIDASES” (Syntara Limited, priority 2022, published 2026)

Key:
[1] = target: Human recombinant LOXL4 (Homo sapiens, UniProt Q96JB6); assay: LOXL4 inhibition, Amplex Red oxidation assay; type: biochemical; conditions: 30 min incubation with enzyme at 37 °C
Procedure: (§1) LOX and LOXL protein family members can be acquired as recombinant active proteins from commercial sources, or extracted from animal tissues like bovine aorta, tendons, pig skin; or prepared from cell cultures. The inhibitory effects of the compounds of the present invention were tested against the given LOX or LOXL preparation using a method based on the detection of hydrogen peroxide with an Amplex Red oxidation assay [Zhou et al, 1997]. The assay was developed using either 384 or 96 well format. Briefly, in a standard black, clear bottom 384 well plate assay 25 µL of a dilution of any of the isoenzymes and orthologues in 1.2 M urea, 50 mM sodium borate buffer (pH 8.2) were added into each well in the presence of […] and 0.5 mM pargyline (to inhibit SSAO and MAO-B and MAO-A, respectively; not necessary if the enzyme is from a recombinant or purified form). Test compounds were dissolved in DMSO and tested in a Concentration Response Curve (CRC) with 11 data points, typically in the micromolar or nanomolar range after incubation with the enzyme for 30 min at 37 °C. […] The fluorescence (RFU) was read every 2.5 min for 30 min at 37 °C, excitation 544 nm and emission 590 (Optima; BMG labtech). The slope/min of the kinetics for each well was calculated using MARS data analysis software (BMG labtech) and this value was used to deduce the IC50 value (Dotmatics). […]

[2] = target: Human recombinant LOXL3 (Homo sapiens, UniProt P58215); assay: LOXL3 inhibition, Amplex Red oxidation assay; type: biochemical; conditions: 30 min incubation with enzyme at 37 °C
Human recombinant LOXL3, sequence (P58215 26-753): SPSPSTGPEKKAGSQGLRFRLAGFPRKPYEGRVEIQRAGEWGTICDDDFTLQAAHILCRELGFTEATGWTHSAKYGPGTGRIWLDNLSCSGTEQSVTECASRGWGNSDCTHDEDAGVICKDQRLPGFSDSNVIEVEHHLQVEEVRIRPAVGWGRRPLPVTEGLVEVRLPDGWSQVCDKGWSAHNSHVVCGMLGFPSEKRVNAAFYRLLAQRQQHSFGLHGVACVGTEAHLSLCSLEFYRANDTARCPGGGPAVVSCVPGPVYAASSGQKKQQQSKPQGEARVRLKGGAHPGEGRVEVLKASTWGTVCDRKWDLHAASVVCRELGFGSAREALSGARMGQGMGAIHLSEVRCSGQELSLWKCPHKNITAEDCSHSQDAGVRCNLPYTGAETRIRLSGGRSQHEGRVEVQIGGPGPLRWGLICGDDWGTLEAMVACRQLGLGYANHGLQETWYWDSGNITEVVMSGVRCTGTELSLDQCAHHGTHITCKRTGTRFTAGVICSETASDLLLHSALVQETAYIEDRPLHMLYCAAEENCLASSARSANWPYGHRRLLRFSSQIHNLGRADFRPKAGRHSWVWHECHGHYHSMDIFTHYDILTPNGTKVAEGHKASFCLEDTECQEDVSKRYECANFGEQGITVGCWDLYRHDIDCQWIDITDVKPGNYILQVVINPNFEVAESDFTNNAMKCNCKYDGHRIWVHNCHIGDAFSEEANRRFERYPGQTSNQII
Procedure: as §1

[3] = target: T1, LOXL1 (Homo sapiens, UniProt Q08397); assay: LOXL1 inhibition, Amplex Red oxidation assay; type: biochemical; conditions: 30 min incubation with enzyme at 37 °C
T1 sequence (Q08397 96-574): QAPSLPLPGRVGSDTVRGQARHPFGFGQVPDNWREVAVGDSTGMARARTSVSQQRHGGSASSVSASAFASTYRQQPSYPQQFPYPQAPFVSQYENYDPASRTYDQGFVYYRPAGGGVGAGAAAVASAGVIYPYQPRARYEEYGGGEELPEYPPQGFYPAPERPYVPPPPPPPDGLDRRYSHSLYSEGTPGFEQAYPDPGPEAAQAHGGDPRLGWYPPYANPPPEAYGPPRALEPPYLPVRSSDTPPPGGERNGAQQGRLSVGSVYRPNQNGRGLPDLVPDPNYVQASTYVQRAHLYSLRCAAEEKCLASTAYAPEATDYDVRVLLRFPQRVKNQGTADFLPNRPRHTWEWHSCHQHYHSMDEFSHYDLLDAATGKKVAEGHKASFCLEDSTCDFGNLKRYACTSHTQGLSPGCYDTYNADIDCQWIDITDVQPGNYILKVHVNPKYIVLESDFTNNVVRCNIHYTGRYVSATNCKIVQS
Procedure: as §1

[4] = target: T2, Human recombinant SSAO/VAP-1 (Homo sapiens, UniProt Q16853); assay: Inhibition of human recombinant SSAO/VAP-1, fluorescent Amplex Red assay; type: biochemical; conditions: 30 min incubation at 37 °C; benzylamine 600 μM in reaction mixture
T2 construct: a cloned cDNA template corresponding to residues 34-763 of human SSAO/VAP-1; TEV cleavage site (N); made in house; host or cells: CHO-K1 glycosylation mutant cell line, Lee 8 (vector assembled by Geneart AG)
T2 sequence (Q16853 34-763): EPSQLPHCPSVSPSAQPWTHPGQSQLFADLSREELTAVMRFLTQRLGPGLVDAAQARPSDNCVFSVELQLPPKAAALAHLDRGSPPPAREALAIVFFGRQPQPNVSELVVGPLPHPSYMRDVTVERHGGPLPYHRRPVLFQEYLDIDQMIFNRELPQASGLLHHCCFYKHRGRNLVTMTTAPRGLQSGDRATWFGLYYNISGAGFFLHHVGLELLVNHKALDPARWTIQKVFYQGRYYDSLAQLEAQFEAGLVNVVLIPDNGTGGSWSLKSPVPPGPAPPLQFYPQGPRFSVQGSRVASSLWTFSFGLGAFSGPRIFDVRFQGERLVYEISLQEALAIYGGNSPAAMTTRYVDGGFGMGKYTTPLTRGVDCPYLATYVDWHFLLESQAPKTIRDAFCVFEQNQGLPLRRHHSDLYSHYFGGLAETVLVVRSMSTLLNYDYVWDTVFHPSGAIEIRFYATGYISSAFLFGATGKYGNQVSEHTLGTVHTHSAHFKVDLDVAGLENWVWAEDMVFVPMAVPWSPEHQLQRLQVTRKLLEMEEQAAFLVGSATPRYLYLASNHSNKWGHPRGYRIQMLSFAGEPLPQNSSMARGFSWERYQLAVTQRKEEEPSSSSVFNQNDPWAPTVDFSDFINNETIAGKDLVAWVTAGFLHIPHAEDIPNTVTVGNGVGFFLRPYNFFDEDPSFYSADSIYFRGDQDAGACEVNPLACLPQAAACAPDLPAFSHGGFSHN
Procedure: Human recombinant SSAO/VAP-1 amine oxidase activity was determined using the coupled colorimetric method as described for monoamine oxidase, copper-containing amine oxidases and related enzymes [Holt A. and Palcic M., 2006]. Briefly, a cloned cDNA template corresponding to residues 34-763 of human SSAO/VAP-1, and incorporating a mouse Ig kappa (κ) signal sequence, N-terminal flag epitope tag and tobacco etch virus (TEV) cleavage site, was assembled in a mammalian expression vector (pLO-CMV) by Geneart AG. This vector containing human SSAO/VAP-1 residues was transfected into CHO-K1 glycosylation mutant cell line, Lee 8. A clone stably expressing human SSAO/VAP-1 was isolated and cultured in large scale. Active human SSAO/VAP-1 was purified and recovered using immunoaffinity chromatography. This was used as the source for SSAO/VAP-1 activity. A high-throughput fluorescent assay was developed using either 96 or 384 well format. Briefly, in a standard 384 well plate assay 25 μL of purified human SSAO/VAP-1 (0.25 μg/mL) in 0.1 M sodium phophate buffer (pH 7.4) was added into each well. […] The fluorescence unit (RFU) was read every 2.5 min for 30 min at 37 °C excitation 544 nm and emission 590 (Optima; BMG labtech). The slope/min of the kinetics for each well was calculated using MARS data analysis software (BMG labtech) and this value was used to deduce the IC50 value (Dotmatics).

[5] = system: skin fibrosis; assay: Mouse model of sclerosis (bleomycin-induced skin fibrosis); type: in vivo, male C57BL/6 mouse; conditions: topical formulation, various concentrations, from day 3; histology after 21 days; FIG. 3, ****=P≤0.0001
Procedure: Subcutaneous bleomycin (0.1 U/kg) was administered every second day (for 21 days total) to male C57BL/6 to induce skin fibrosis as a model of sclerosis. The lesions were treated, from day 3, with either Vehicle or various concentrations of Compound 1 in a topical formulation. Histology was completed after 21 days.

Human recombinant LOXL4, sequence (Q96JB6 25-756): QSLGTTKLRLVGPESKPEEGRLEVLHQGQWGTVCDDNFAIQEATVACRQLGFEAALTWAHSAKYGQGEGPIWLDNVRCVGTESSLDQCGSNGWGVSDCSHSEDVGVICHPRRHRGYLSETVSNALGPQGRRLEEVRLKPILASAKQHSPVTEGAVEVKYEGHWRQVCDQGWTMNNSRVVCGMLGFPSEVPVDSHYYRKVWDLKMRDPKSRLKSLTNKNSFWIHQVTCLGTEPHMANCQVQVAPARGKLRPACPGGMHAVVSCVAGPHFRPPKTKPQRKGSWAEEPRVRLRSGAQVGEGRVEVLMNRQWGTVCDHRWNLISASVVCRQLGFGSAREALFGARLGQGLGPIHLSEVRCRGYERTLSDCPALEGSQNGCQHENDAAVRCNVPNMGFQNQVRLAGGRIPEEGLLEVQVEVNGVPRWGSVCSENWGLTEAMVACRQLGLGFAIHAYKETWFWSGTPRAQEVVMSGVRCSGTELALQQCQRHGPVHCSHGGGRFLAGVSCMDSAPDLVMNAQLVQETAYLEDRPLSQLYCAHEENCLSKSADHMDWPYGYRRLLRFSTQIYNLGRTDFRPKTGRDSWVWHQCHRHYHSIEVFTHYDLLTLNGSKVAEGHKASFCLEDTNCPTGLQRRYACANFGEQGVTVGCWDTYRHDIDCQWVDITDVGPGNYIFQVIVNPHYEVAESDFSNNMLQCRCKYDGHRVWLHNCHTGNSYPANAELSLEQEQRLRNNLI

Compound | IC50 [1] [nM] | IC50 [2] [µM] | IC50 [3] [µM] | IC50 [4] [µM] | Average collagen score (histology) [5]
N#CCCN [BAPN, β-aminopropionitrile, reference compound] | 300 | 0.5 | 2.5 | – | –
NC/C(=C\F)CS(=O)(=O)c1ccccc1 [Compound 1, (E)-3-fluoro-2-((phenylsulfonyl)methyl)prop-2-en-1-amine] | 4700 | 5.9 | 13.2 | > 30 | significant improvement in the average collagen score
